Measurements published in ChEMBL document CHEMBL5303573, “Mapping human microbiome drug metabolism by gut bacteria and their genes” (Nature, 2019).

Key:
[1] = The drug is tested on Blautia luti strain: DSM14534 for biotransformation. The drug concentrations were measured before and after a 12-h incubation by liquid-chromatography-coupled mass spectrometry (LC–MS); assay type: ADME; parameters: dose 2 uM, timepoint 0 vs 12 hours; settings: 2 µM
[2] = The drug is tested on Clostridium ramosum strain: DSM1402 for biotransformation. The drug concentrations were measured before and after a 12-h incubation by liquid-chromatography-coupled mass spectrometry (LC–MS); settings: thomasclavelia ramosa, 2 µM
[3] = victivallis vadensis, 12 h, 2 µM
Description: The drug is tested on Victivallis vadensis strain: ATCC BAA-548 for biotransformation. The drug concentrations were measured before and after a 12-h incubation by liquid-chromatography-coupled mass spectrometry (LC–MS)

[4] = bacteroides eggerthii, 12 h, 2 µM
Description: The drug is tested on Bacteroides eggerthii strain: DSM20697 for biotransformation. The drug concentrations were measured before and after a 12-h incubation by liquid-chromatography-coupled mass spectrometry (LC–MS)

[5] = bacteroides thetaiotaomicron, 12 h, 2 µM
Description: The drug is tested on Bacteroides thetaiotaomicron strain: 3731 for biotransformation. The drug concentrations were measured before and after a 12-h incubation by liquid-chromatography-coupled mass spectrometry (LC–MS)

[6] = The drug is tested on Clostridium symbiosum strain: ATCC14940 for biotransformation. The drug concentrations were measured before and after a 12-h incubation by liquid-chromatography-coupled mass spectrometry (LC–MS); settings: 2 µM
[7] = The drug is tested on Eggerthella lenta strain: ATCC25559 for biotransformation. The drug concentrations were measured before and after a 12-h incubation by liquid-chromatography-coupled mass spectrometry (LC–MS); settings: 2 µM

Measured: Bacterial Biotransformation

COc1cc2nc(N3CCN(C(=O)C4COc5ccccc5O4)CC3)nc(N)c2cc1OC.CS(=O)(=O)O (stereo not given) [DOXAZOSIN MESYLATE]
not listed: [7]
Compound NOT metabolized: all other assays above

Cc1ccccc1N1C(=O)c2cc(S(N)(=O)=O)c(Cl)cc2NC1C (stereo not given) [METOLAZONE]
not listed: [7]
Compound NOT metabolized: all other assays above

CO[C@]12C[C@@H](COC(=O)c3cncc(Br)c3)CN(C)[C@@H]1Cc1cn(C)c3cccc2c13 [NICERGOLINE]
Compound NOT metabolized: all assays above

CCN(CC)C(=O)C1(c2ccccc2)CC1CN (stereo not given)
Compound NOT metabolized: all assays above

CN1CCN(C(=O)O[C@H]2c3nccnc3C(=O)N2c2ccc(Cl)cn2)CC1 [ESZOPICLONE]
Compound NOT metabolized: all assays above

COC1=C(OC)C(=O)C(CCCCCCCCCCO)=C(C)C1=O [IDEBENONE]
Compound metabolized: [1]
Compound NOT metabolized: all other assays above

CC(C)(C)N.CCC[C@H](N[C@@H](C)C(=O)N1[C@H](C(=O)O)C[C@@H]2CCCC[C@@H]21)C(=O)OCC [PERINDOPRIL ERBUMINE]
not listed: [5] | [7]
Compound NOT metabolized: all other assays above

CC(C)(C)NC(=O)[C@H]1CC[C@H]2[C@@H]3CC[C@H]4NC(=O)C=C[C@]4(C)[C@H]3CC[C@]12C [FINASTERIDE]
Compound metabolized: [4]
Compound NOT metabolized: [1] | [3] | [5] | [6]

CCN(CC)CCOC(=O)C(Cc1cccc2ccccc12)CC1CCCO1.O=C(O)C(=O)O (stereo not given) [NAFRONYL OXALATE]
not listed: [7]
Compound NOT metabolized: all other assays above

O=c1[nH]c2ccccc2n1CCCN1CCC(n2c(=O)[nH]c3cc(Cl)ccc32)CC1 [DOMPERIDONE]
not listed: [7]
Compound NOT metabolized: all other assays above

CCN(CC)CC#CCOC(=O)C(O)(c1ccccc1)C1CCCCC1.Cl (stereo not given) [OXYBUTYNIN CHLORIDE]
Compound NOT metabolized: [3] | [7] | [5]
Compound metabolized: [1] | [6]

CC1OC(OC2C(O)CC(OC3C(O)CC(OC4CCC5(C)C(CCC6C5CCC5(C)C(C7=CC(=O)OC7)CCC65O)C4)OC3C)OC2C)CC(O)C1O (stereo not given)
Compound metabolized: [4]
not listed: [7]
Compound NOT metabolized: all other assays above

COC(=O)C1=C(C)NC(C)=C(C(=O)OC(C)C)C1c1cccc2nonc12 (stereo not given) [ISRADIPINE]
not listed: [3]
Compound NOT metabolized: all other assays above

CN(C)CC(c1ccc(O)cc1)C1(O)CCCCC1.O=C(O)CCC(=O)O (stereo not given) [DESVENLAFAXINE SUCCINATE]
not listed: [3]
Compound NOT metabolized: all other assays above

CC(CCc1ccccc1)NCC(O)c1ccc(O)c(C(N)=O)c1 (stereo not given) [LABETALOL]
not listed: [3]
Compound NOT metabolized: all other assays above

CN1CCN(C2=Nc3ccccc3Oc3ccc(Cl)cc32)CC1.O=C(O)CCC(=O)O [LOXAPINE SUCCINATE]
not listed: [2]
Compound NOT metabolized: all other assays above

Cc1cc2c(cc1S(N)(=O)=O)S(=O)(=O)CCC2
not listed: [2] | [7]
Compound NOT metabolized: all other assays above

CN(C)CCOC(C)(c1ccccc1)c1ccccn1.O=C(O)CCC(=O)O (stereo not given) [DOXYLAMINE SUCCINATE]
not listed: [7]
Compound NOT metabolized: all other assays above

CCOC(=O)[C@H](CCc1ccccc1)N[C@@H](C)C(=O)N1CCC[C@H]1C(=O)O.O=C(O)/C=C\C(=O)O [ENALAPRIL MALEATE]
not listed: [7]
Compound NOT metabolized: all other assays above

OCCN1CCN(CCCN2c3ccccc3Sc3ccc(C(F)(F)F)cc32)CC1 [FLUPHENAZINE]
Compound metabolized: [2] | [5]
not listed: [6]
Compound NOT metabolized: all other assays above

CCN(CC)CCNC(=O)c1cc(Cl)c(N)cc1OC [METOCLOPRAMIDE]
not listed: [3]
Compound NOT metabolized: all other assays above

Cc1cc2c(s1)Nc1ccccc1N=C2N1CCN(C)CC1 [OLANZAPINE]
not listed: [7]
Compound NOT metabolized: all other assays above

COc1ccc(Cc2nccc3cc(OC)c(OC)cc23)cc1OC [PAPAVERINE]
not listed: [3]
Compound NOT metabolized: all other assays above

C=CCN1CC[C@]23c4c5ccc(O)c4O[C@H]2C(=O)CC[C@@]3(O)[C@H]1C5 [NALOXONE]
Compound NOT metabolized: [1] | [2] | [3]
Compound metabolized: [4] | [7] | [5]

CN1CCC(=C2c3ccccc3CC(=O)c3sccc32)CC1.O=C(O)/C=C/C(=O)O [KETOTIFEN FUMARATE]
not listed: [3]
Compound NOT metabolized: all other assays above

N#Cc1ccc(C(c2ccc(C#N)cc2)n2cncn2)cc1 [LETROZOLE]
not listed: [2] | [7]
Compound NOT metabolized: all other assays above
